Assays:
[1] = test system: B16-F0 melanoma cell line; test: Melanin production suppressing activity in B16-F0 melanoma cells; assay type: cell-based, mouse; conditions: for Melanin amount (% of control): three days with 2 mM theophylline; for Suppressive action on melanin production (in words): summary of Table 2, compared with arbutin or kojic acid
Experimental: B16-F0 melanoma cell line of mouse origin, purchased from Dainippon Pharmaceutical Co., Ltd. was used in the experiment. In 60-mm petri dish, 200,000 cells were incubated for five days in a medium (D-MEM*+10% FBS*) supplemented with 0.1% D-glucosamine hydrochloride, an inhibitor of carbohydrate synthesis, to halt melanin synthesis and turn the culture white. Following the 5-day culture, the cells were washed with PBS(−)* to remove D-glucosamine hydrochloride, and 2 mM theophylline (250-fold concentrated solution/distilled water), a phosphodiesterase inhibitor, was added to raise intracellular cAMP and thereby promote the recovery of tyrosinase synthesis. At the same time, a test compound (250-fold concentrated solution/PBS(−)) was added. Three days after the addition of theophylline and the test compound, the cells were harvested by trypsin treatment. The cell pellets were resuspended in 1 ml of PBS(−), 0.1 ml of which was used for counting cells, and 0.9 ml for melanin determination. Determination of melanin was carried out by washing the cell pellets once with 5% trichloroacetic acid, ethanol/diethyl ether (3:1), and then diethyl ether, adding 1 ml of 2 N NaOH to lyse the cells, measuring optical density at 420 nm, and comparing the result with a calibration curve produced with reference standard.

elastase = test: Elastase inhibiting activity (Suc(Ome)-Ala-Ala-Pro-Val-MCA fluorescence); assay type: biochemical; conditions: for Elastase inhibition rate (%): 25° C., pH 7.5; for Elastase inhibiting activity (in words): summary of Table 3
Experimental: 96-well plates were used. 1 mM of Suc(Ome)-Ala-Ala-Pro-Val-MCA, 30 μl of a test sample, 210 μl of Tris-NaCl Buffer (25° C., pH 7.5) and 30 μl of 1 unit/ml elastase were added and fluorescence was measured every minute (Ex. 360/40 nm, Em. 460/40 nm). Inhibition rates of elastase activity were determined based on a calibration curve produced with AMC (7-amino-4-methyl-coumarin) reference standard.

[2] = target: T1, Tyrosine hydroxylase from rat brain (Rattus norvegicus, UniProt P04177); test: Tyrosine hydroxylase inhibiting activity; assay type: biochemical; conditions: for Tyrosine hydroxylase inhibition rate: 37° C., 40 minutes, pH 6.0
T1 construct: Tyrosine hydroxylase from rat brain was used in the test; from tissue; host or cells: rat brain
T1 sequence (P04177 whole entry): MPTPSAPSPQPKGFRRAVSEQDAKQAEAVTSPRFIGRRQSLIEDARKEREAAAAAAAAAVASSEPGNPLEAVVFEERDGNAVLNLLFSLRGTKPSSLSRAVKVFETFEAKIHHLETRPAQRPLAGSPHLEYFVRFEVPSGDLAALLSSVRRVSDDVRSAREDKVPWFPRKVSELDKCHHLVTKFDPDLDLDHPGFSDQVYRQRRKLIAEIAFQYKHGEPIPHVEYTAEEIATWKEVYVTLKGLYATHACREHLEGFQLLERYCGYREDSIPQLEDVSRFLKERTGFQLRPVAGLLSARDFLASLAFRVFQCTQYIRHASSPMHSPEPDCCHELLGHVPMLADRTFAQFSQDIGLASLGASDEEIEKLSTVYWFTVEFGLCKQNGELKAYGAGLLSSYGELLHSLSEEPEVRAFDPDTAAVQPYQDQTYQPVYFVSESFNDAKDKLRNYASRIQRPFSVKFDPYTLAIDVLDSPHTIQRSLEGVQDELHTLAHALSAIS
Experimental: Tyrosine hydroxylase from rat brain was used in the test.
A test compound added to 100 μM tyrosine containing L-[3,5-^3H] tyrosine (0.5 μCi/assay), 1 mg of tyrosine hydroxylase, 0.2 mM of (6R)-5,6,7,8-tetrahydro-L-biopterin, 1.8 mg/ml catalase, 5 mM dithiothreitol (in MES buffer, pH 6.0) was incubated at 37° C. for 40 minutes. The reaction was terminated by addition of 7.5% charcoal in 1 M hydrochloric acid.
^3H2O derived from 3,4-dihydroxyphenylalanine (DOPA) was determined by liquid scintillation.

In the case of `OC[C@H]1O[C@@H](Oc2ccc(O)cc2)[C@H](O)[C@@H](O)[C@@H]1O` [Arbutin, reference compound], the “Melanin amount (% of control)” value ([1]; 0.1 mM) is reported as 97.29 % of control, the “Melanin amount (% of control)” value ([1]; 0.3 mM) is reported as 88.86 % of control and the “Melanin amount (% of control)” value ([1]; 1 mM) is reported as 83.02 % of control.

`CC(C)C[C@H](NC(=O)N[C@H](C(=O)N[C@@H](CCC(N)=O)C(=O)N[C@@H](C)C=O)[C@@H]1CCNC(=N)N1)C(=O)O` [Elastinal, reference compound] was tested, and the “Elastase inhibition rate (%)” value (elastase; 0.03 mM) was 25.29%, the “Elastase inhibition rate (%)” value (elastase; 0.1 mM) was 56.87% and the “Elastase inhibition rate (%)” value (elastase; 0.3 mM) was 77.45%. For the same compound, the “Elastase inhibition rate (%)” value (elastase; 1 mM) was 93.01%.

`O=C(CCCCC1CC[S][Zn][S]1)NCCS(=O)(=O)[O-].[Na+]` (centres unmarked) [Example 1, N-(6,8-dimercaptooctanoyl)aminoethanesulfonic acid sodium salt zinc chelate compound] was tested, and the “Tyrosine hydroxylase inhibition rate” value ([2]; test compound 0.1 mM) was 15%, the “Tyrosine hydroxylase inhibition rate” value ([2]; test compound 1 mM) was 53% and the “Melanin amount (% of control)” value ([1]; 0.03 mM) was 78.33 % of control. The “Melanin amount (% of control)” value ([1]; 0.1 mM) was 30.01 % of control, the “Melanin amount (% of control)” value ([1]; 0.3 mM) was 12.28 % of control and the “Suppressive action on melanin production (in words)” value (“Suppressive action” below) [1] was “potent suppressive action on melanin production”.

With `O=C([O-])CCCCCNC(=O)CCCCC1CC[S][Zn][S]1.[Na+]` (centres unmarked) [Example 5, N-(6,8-dimercaptooctanoyl)-6-aminohexanoic acid sodium salt zinc chelate compound] the “Elastase inhibition rate (%)” value (elastase; 0.03 mM) was 94.74%, the “Elastase inhibiting activity (in words)” value (elastase) was “comparable to Elastinal” and the “Melanin amount (% of control)” value ([1]; 0.03 mM) was 64.43 % of control. For the same compound, the “Melanin amount (% of control)” value ([1]; 0.1 mM) was 27.69 % of control, the “Melanin amount (% of control)” value ([1]; 0.3 mM) was 9.85 % of control and the “Suppressive action” value [1] was “potent suppressive action on melanin production”.

`O=C([O-])CCCNC(=O)CCCCC1CC[S][Zn][S]1.[Na+]` (centres unmarked) [Example 6, N-(6,8-dimercaptooctanoyl)-γ-amino-n-butyric acid sodium salt zinc chelate compound] was tested, and the “Elastase inhibition rate (%)” value (elastase; 0.03 mM) was 78.95%, the “Elastase inhibiting activity (in words)” value (elastase) was “comparable to Elastinal” and the “Melanin amount (% of control)” value ([1]; 0.03 mM) was 61.18 % of control. The “Melanin amount (% of control)” value ([1]; 0.1 mM) was 29.20 % of control, the “Melanin amount (% of control)” value ([1]; 0.3 mM) was 9.73 % of control and the “Suppressive action” value [1] was “potent suppressive action on melanin production”.

In the case of `O=C(CCCCC1CC[S][Zn][S]1)NC(Cc1ccccc1)C(=O)[O-].[Na+]` (centres unmarked) [Example 7, N-(6,8-dimercaptooctanoyl)phenylalanine sodium salt zinc chelate compound], the “Elastase inhibition rate (%)” value (elastase; 0.03 mM) is reported as 83.33%, the “Elastase inhibiting activity (in words)” value (elastase) is reported as “comparable to Elastinal” and the “Melanin amount (% of control)” value ([1]; 0.03 mM) is reported as 71.43 % of control. For the same compound, the “Melanin amount (% of control)” value ([1]; 0.1 mM) was 37.78 % of control and the “Suppressive action” value [1] was “potent suppressive action on melanin production”.

For `O=C(CCCCC1CC[S][Zn][S]1)Nc1ccccc1C(=O)[O-].[Na+]` (centres unmarked) [Example 8, N-(6,8-dimercaptooctanoyl)anthranilic acid sodium salt zinc chelate compound], the “Elastase inhibition rate (%)” value (elastase; 0.03 mM) was 24.07%, the “Elastase inhibition rate (%)” value (elastase; 0.1 mM) was 48.15% and the “Elastase inhibition rate (%)” value (elastase; 0.3 mM) was 72.22%. For the same compound, the “Elastase inhibiting activity (in words)” value (elastase) was “comparable to Elastinal”, the “Melanin amount (% of control)” value ([1]; 0.03 mM) was 72.47 % of control and the “Melanin amount (% of control)” value ([1]; 0.1 mM) was 47.64 % of control. For the same compound, the “Melanin amount (% of control)” value ([1]; 0.3 mM) was 16.74 % of control and the “Suppressive action” value [1] was “potent suppressive action on melanin production”.

`CSCCC(NC(=O)CCCCC1CC[S][Zn][S]1)C(=O)O` (centres unmarked) [Example 9, N-(6,8-dimercaptooctanoyl)methionine zinc chelate compound] was tested, and the “Elastase inhibition rate (%)” value (elastase; 0.03 mM) was 7.41%, the “Elastase inhibition rate (%)” value (elastase; 0.1 mM) was 68.52% and the “Elastase inhibition rate (%)” value (elastase; 0.3 mM) was 88.89%. The “Elastase inhibiting activity (in words)” value (elastase) was “comparable to Elastinal”, the “Melanin amount (% of control)” value ([1]; 0.03 mM) was 63.05 % of control and the “Melanin amount (% of control)” value ([1]; 0.1 mM) was 50.18 % of control. For the same compound, the “Melanin amount (% of control)” value ([1]; 0.3 mM) was 16.41 % of control and the “Suppressive action” value [1] was “potent suppressive action on melanin production”.

For `O=c1cc(CO)occ1O` [Kojic acid, reference compound], the “Melanin amount (% of control)” value ([1]; 0.1 mM) was 92.70 % of control, the “Melanin amount (% of control)” value ([1]; 0.3 mM) was 88.04 % of control and the “Melanin amount (% of control)” value ([1]; 1 mM) was 68.80 % of control. For the same compound, the “Melanin amount (% of control)” value ([1]; 10 mM) was 18.73 % of control.

`O=C(CCCCC1CCSS1)NCCS(=O)(=O)[O-].[Na+]` (stereo not drawn) [Reference Example 1, N-α-lipoylaminoethanesulfonic acid sodium salt] was tested, and the “Tyrosine hydroxylase inhibition rate” value ([2]; test compound 0.1 mM) was 11% and the “Tyrosine hydroxylase inhibition rate” value ([2]; test compound 1 mM) was 10%.

`O=C(O)CCCCC1CCSS1` (stereo not drawn) [α-lipoic acid, reference compound] was tested, and the “Tyrosine hydroxylase inhibiting activity (in words)” value ([2]; summary of Table 1) was “no tyrosine hydroxylase inhibiting activity”, the “Tyrosine hydroxylase inhibition rate” value ([2]; test compound 0.1 mM) was 2% and the “Tyrosine hydroxylase inhibition rate” value ([2]; test compound 1 mM) was 1%. The “Elastase inhibition rate (%)” value (elastase; 0.03 mM) was −2.94%, the “Elastase inhibition rate (%)” value (elastase; 0.1 mM) was 11.76% and the “Elastase inhibition rate (%)” value (elastase; 0.3 mM) was 10.29%. The “Elastase inhibiting activity (in words)” value (elastase) was “did not show any elastase inhibiting activity”.

Reference: patent US7700080B2, “Method of suppressing melanin production by metal chelates of lipoyl amino acid derivatives” (Senju Pharmaceutical Co., Ltd., priority 2001, dated 2010)
